The results in this text go back to ChEMBL document CHEMBL2331422, “Tetracyclic diterpenoids with isomerized isospongian skeleton and labdane diterpenoids from the fruits of Amomum kravanh” (J Nat Prod, 2013).

pIC50: −log10 of the molar value.

Data set [1] can be described thus: Antiplatelet aggregation activity in New Zealand white rabbit platelet rich plasma assessed as inhibition of ADP-induced aggregation treated for 3 mins before ADP challenge by turbidimetric method. It is filed as functional. As to conditions: Oryctolagus cuniculus, Newzealand white.
A short description of data set [2]: Cytotoxicity against mouse RAW264.7 cells assessed as cell survival up to 100 uM by MTT assay. Conditions: read-out: Activity. It is filed as cell-based.
Data set [3] deals with RAW264.7. As to the kind of experiment: Inhibition of nitric oxide production in LPS-stimulated mouse RAW264.7 cells at 100 uM by Griess reagent assay. The data set is classed as functional.
Data set [4] concerns RAW264.7. In words: Inhibition of nitric oxide production in LPS-stimulated mouse RAW264.7 cells by Griess reagent assay. The data set is classed as functional, cell-based.

Consider `C=C1CC[C@H]2C(C)(C)CCC[C@]2(C)[C@H]1C/C=C(/CO)[C@@H](O)CO`, for which, in data set [1], the pIC50 was less than 3.70. For the same compound, the viability in data set [2] stood at 90%. In addition, the inhibition at 100 µM with RAW264.7 [3] was less than 10%.

On to `C=C1CC[C@H]2[C@](C)(CO)[C@@H](O)CC[C@]2(C)[C@H]1CCC1=CC(=O)OC1`, for which, in data set [1], the pIC50 is 4.23. Further, the viability in data set [2] was 90%. Further, the inhibition at 100 µM with RAW264.7 [3] is less than 10%.

On to `C=C1CC[C@H]2[C@](C)(CO)[C@@H](O)CC[C@]2(C)[C@H]1C/C=C1\CCOC1=O`, for which the negative logarithm of the IC50 (pIC50) in data set [1] was less than 3.70. The viability in data set [2] was 90%. Besides, the inhibition at 100 µM in the data set with RAW264.7 [3] is less than 10%.

Consider `CC(=O)Oc1ccccc1C(=O)O` [ASPIRIN], for which, in data set [1], the pIC50 is 4.23.

In the case of `CC1(C)[C@@H](O)CC[C@]2(C)[C@H]3CCC4=CC(=O)O[C@@H]4[C@@]3(C)C(=O)C[C@@H]12` [KRAVANHIN A], the negative logarithm of the IC50 (pIC50) in data set [1] is less than 3.70. The viability in data set [2] amounted to 90%. Moreover, in the data set on RAW264.7 [3], the inhibition at 100 µM is less than 10%.

With `CC1(C)CCC[C@]2(C)[C@H]3CCC4=CC(=O)O[C@@H]4[C@@]3(C)C(=O)C[C@@H]12` [KRAVANHIN B], the negative logarithm of the IC50 (pIC50) in data set [1] was less than 3.70; with RAW264.7 [4], 4.44. In addition, the viability in data set [2] is 90%. In addition, the inhibition at 100 µM with RAW264.7 [3] is less than 10%.

In the case of `CC1(C)C(=O)CC[C@]2(C)[C@H]3CCC4=CC(=O)O[C@@H]4[C@@]3(C)C(=O)C[C@@H]12` [KRAVANHIN C], in data set [1], the pIC50 is less than 3.70. Moreover, the viability in data set [2] was 90%. The compound further had an inhibition at 100 µM with RAW264.7 [3] of less than 10%.

On to `CC1(C)CCC[C@]2(C)[C@H]3CC=C(CCO)C(O)[C@@]3(C)C(=O)C[C@@H]12` (some centres undefined) [KRAVANHIN D], for which the pIC50 in data set [1] was less than 3.70. In data set [2], the viability worked out at 90%. This compound also had an inhibition at 100 µM with RAW264.7 [3] of less than 10%.

Consider `CNC(=N)NCCC[C@H](N)C(=O)O` [TILARGININE], for which the pIC50 with RAW264.7 [4] was 4.39.
